SMILES strings stand for the structures.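 Interpolation was linear, between the two tested concentrations surrounding the appropriate level; five concentrations were tested over 48 hours in 96-well plates. GI50 is the concentration that inhibits growth by half.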 The source made the active and inactive calls. No stated cut-off is given here; in the data, active = GI50 up to about 1.1 µM and inactive = higher.

Holding throughout (assay): growth of human tumour cells (NCI), 48 h
The subject of assay [1] is A498.
Assay [2] deals with ACHN.
Assay [3] relates to CCRF-CEM.
The test system of assay [4] is EKVX.
The test system of assay [5] is HCT-116.
Assay [6] deals with HCT-15.
Assay [7] relates to HOP-62.
For assay [8], the system named is KM12.
For assay [9], the system named is MCF7.
The subject of assay [10] is MDA-MB-435.
In assay [11] the test system is NCI-H226.
The test system of assay [12] is NCI-H23.
Assay [13] has as its system NCI-H460.
In assay [14] the test system is RPMI-8226.
Assay [15] relates to SF-295.
For assay [16], the system named is SK-OV-3.
Assay [17] relates to SNB-75.
Assay [18] deals with SR.
The subject of assay [19] is TK-10.
The test system of assay [20] is UO-31.

Regarding `COc1ccc2c(c1OC)C(=O)O[C@@H]2[C@H]1c2cc3c(cc2CCN1C)OCO3`, the GI50 is > 100 µM (inactive) in [1]; > 100 µM (inactive) in [2]; > 10 µM (inactive) in assay [3]; > 100 µM (inactive) in assay [4]; > 100 µM (inactive) in [5]; over 100 µM in assay [6]. Besides, the GI50 in assay [7], in assay [8], in [9], in assay [10], in assay [11] and in assay [12] was > 100 µM (inactive) in each case. The GI50 in assay [13], in [14], in [15], in assay [16], in [17] and in assay [18] was > 100 µM (inactive) throughout. In addition, the GI50 in assay [19] and in [20] was > 100 µM (inactive) throughout.

On to `O=[N+]([O-])c1ccc(NN=C2c3ccccc3Cc3ccccc32)c([N+](=O)[O-])c1`, for which the GI50 is > 92 µM (inactive) in assay [1]; 17.7 µM (inactive) in assay [2]; 3.1 µM (inactive) in assay [3]; 5.37 µM (inactive) in assay [4]; 5.37 µM (inactive) in assay [5]; 6.43 µM in assay [6]. For the same compound, the GI50 is 6.92 µM (inactive) in [7]; 2.98 µM (inactive) in [8]; 4.23 µM (inactive) in assay [9]; 1.79 µM (inactive) in assay [10]; 29.6 µM (inactive) in assay [11]; 15 µM (inactive) in [12]. Also, the GI50 in assay [13] was 3.91 µM (inactive); in [14], 8.91 µM (inactive); in [15], 3.71 µM (inactive); in assay [16], 7.74 µM (inactive); in assay [17], 4.59 µM (inactive); in assay [18] it was 2.07 µM (inactive). The results for the GI50 in assay [19] and in assay [20] were > 100 µM (inactive) and > 26.4 µM (inactive), respectively.

For `COC1/C=C/OC2(C)Oc3c(C)c(O)c4c(c3C2=O)C(=O)C=C(NC(=O)/C(C)=C\C=C\C(C)C(OC=O)C(C)C(O)C(C)C(OC(C)=O)C1C)C4=O` (stereo not given), the GI50 in assay [1] is 18.6 µM (inactive); in assay [2] it was 8.67 µM (inactive); in assay [3], 2.03 µM (inactive); in [4], 14.7 µM (inactive); in [5], 4.82 µM (inactive); in assay [6] it was 8.61 µM. Further, the GI50 in assay [7] is 18.7 µM (inactive); in [8], 26.8 µM (inactive); in assay [9], 2.93 µM (inactive); in [10] it was 16 µM (inactive); in [11] it was 13.6 µM (inactive); in [12], 14.4 µM (inactive). Besides, the GI50 in [13] was 21.1 µM (inactive); in [14] it was 5.22 µM (inactive); in [15], 23.3 µM (inactive); in assay [16], 28.7 µM (inactive); in [17], 18.3 µM (inactive); in assay [18], 2.77 µM (inactive). The figures for the GI50 in assay [19] and in assay [20] were 16.6 µM (inactive) and 16 µM (inactive), respectively.

With `CNc1nc2n(CCO)c(-c3ccccc3)c(-c3ccccc3)nc-2c(=O)n1`, the GI50 in assay [1] was > 50 µM (inactive); in assay [2], > 50 µM (inactive); in assay [3], > 50 µM (inactive); in [4], > 50 µM (inactive); in assay [5] it was > 50 µM (inactive); in assay [6], over 50 µM. Also, the GI50 in assay [7] is 22.8 µM (inactive); in [8] it was > 50 µM (inactive); in assay [9] it was > 50 µM (inactive); in [10] it was > 50 µM (inactive); in assay [11], > 50 µM (inactive); in assay [12], > 50 µM (inactive). Also, the GI50 in [13], in [14], in assay [15], in [16], in assay [17] and in assay [18] was > 50 µM (inactive) each time. Also, the GI50 in assay [19] and in [20] was > 50 µM (inactive) in each case.

For the compound `CCOC(CBr)OC1C(=O)OCC1(C)C` (stereo not given), the GI50 is > 100 µM (inactive) in [1]; > 100 µM (inactive) in assay [2]; > 100 µM (inactive) in assay [3]; > 100 µM (inactive) in assay [4]; > 100 µM (inactive) in [5]; over 100 µM in [6]. For the same compound, the GI50 in assay [7], in assay [8], in assay [9], in assay [10], in [11] and in [12] was > 100 µM (inactive) in each case. Further, the GI50 in assay [13], in [14], in assay [15], in [16], in assay [17] and in [18] was > 100 µM (inactive) throughout. Moreover, the GI50 in assay [19] and in assay [20] was > 100 µM (inactive) in each case.

`O=C(C=P(c1ccccc1)(c1ccccc1)c1ccccc1)c1ccc(-c2cccc([N+](=O)[O-])c2)cc1`: the GI50 in [1] is 3.02 µM (inactive); in assay [2], 2.82 µM (inactive); in assay [3] it was 2.79 µM (inactive); in [4], 2.69 µM (inactive); in assay [5], 2.21 µM (inactive); in assay [6], 3.94 µM. The GI50 is 5.86 µM (inactive) in assay [7]; 3.85 µM (inactive) in assay [8]; 3.13 µM (inactive) in [9]; 2.39 µM (inactive) in assay [10]; 5.01 µM (inactive) in assay [11]; 4.36 µM (inactive) in [12]. Further, the GI50 is 1.91 µM (inactive) in assay [13]; 1.87 µM (inactive) in [14]; 3.6 µM (inactive) in assay [15]; 4.03 µM (inactive) in [16]; 2.29 µM (inactive) in assay [17]; 3.69 µM (inactive) in assay [18]. The GI50 was 3.23 µM (inactive) in assay [19] and 2.09 µM (inactive) in [20].

Take `O=C(CCc1ccc(O)c(O)c1)NCCc1cc(O)cc(OCc2ccccc2)c1`: the GI50 in assay [1] was > 100 µM (inactive); in assay [2], 8.75 µM (inactive); in assay [3] it was 6.87 µM (inactive); in [4], 53.5 µM (inactive); in [5] it was 33.5 µM (inactive); in assay [6] it was 11.6 µM. The GI50 was 61.1 µM (inactive) in assay [7]; 29.7 µM (inactive) in assay [8]; 26.9 µM (inactive) in assay [9]; 27.2 µM (inactive) in assay [10]; 58.7 µM (inactive) in assay [11]; 21.6 µM (inactive) in assay [12]. The GI50 in assay [13] was 22.2 µM (inactive); in assay [14], 9.04 µM (inactive); in assay [15], 46.7 µM (inactive); in assay [16] it was 28.7 µM (inactive); in assay [17], 15.6 µM (inactive); in assay [18], 21.1 µM (inactive). In addition, the figures for the GI50 in [19] and in assay [20] were > 100 µM (inactive) and 4.69 µM (inactive), respectively.

For the compound `O=C(NO)c1ccc(OCc2cccc(Cl)c2)cc1`, the GI50 in assay [1] was 4.81 µM (inactive); in assay [2], 4.57 µM (inactive); in assay [3] it was 2.66 µM (inactive); in [4], 10.8 µM (inactive); in assay [5] it was 2.22 µM (inactive); in [6], 4.57 µM. In addition, the GI50 in [7] was 9.1 µM (inactive); in [8], 11.9 µM (inactive); in assay [9] it was 12.7 µM (inactive); in [10] it was 6.67 µM (inactive); in [11], 11.9 µM (inactive); in [12], 5.3 µM (inactive). For the same compound, the GI50 in assay [13] is 4.58 µM (inactive); in assay [14], 3.27 µM (inactive); in [15] it was 9.33 µM (inactive); in assay [16], 8.45 µM (inactive); in assay [17], 9.2 µM (inactive); in assay [18], 2.16 µM (inactive). Further, the GI50 in assay [19] was 11.6 µM (inactive); in assay [20], 7.43 µM (inactive).

These data come from ChEMBL document CHEMBL1201862, “PubChem BioAssay data set” (2004).
